Assays:
Test in all cases: Test D pre-/postemergence controlled growth environment herbicide test
Format in all cases: in vivo
Details in all cases: scale 0 to 100
[1] = system: deadnettle (henbit deadnettle, Lamium amplexicaule)
Method in brief: (§1)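 Preemergence: seeds sown in silt loam soil and sprayed with test chemicals in a non-phytotoxic solvent mixture containing surfactant. Postemergence: plants grown in peat/vermiculite planting medium and sprayed at 2 to 18 cm (1- to 4-leaf stage). Visual rating versus controls after 14 to 21 d, 0 (no effect) to 100 (complete control).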

[2] = system: oilseed rape (Brassica napus)
Method in brief: as §1

[3] = system: field poppy (Papaver rhoeas)
Method in brief: as §1

[4] = system: chamomile (scentless chamomile, Matricaria inodora)
Method in brief: as §1

[5] = system: galium (catchweed bedstraw, Galium aparine)
Method in brief: as §1

[6] = system: foxtail, green (green foxtail, Setaria viridis)
Method in brief: as §1

[7] = system: radish, wild (wild radish, Raphanus raphanistrum)
Method in brief: as §1

[8] = system: field violet (Viola arvensis)
Method in brief: as §1

[9] = system: lambsquarters (Chenopodium album)
Method in brief: as §1

[10] = system: downy bromegrass (Bromus tectorum)
Method in brief: as §1

[11] = system: wheat, winter (winter wheat, Triticum aestivum)
Method in brief: as §1

## Cc1cc(=O)n(-c2ccc(F)cc2)nc1Cc1ccnc(C(F)(F)F)c1 [Compound 1, 2-(4-fluorophenyl)-5-methyl-6-[[2-(trifluoromethyl)-4-pyridinyl]methyl]-3(2H)-pyridazinone]
[1]; Postemergence, 31 g ai/ha
  Plant response rating: 10
[1]; Postemergence, 62 g ai/ha
  Plant response rating: 25
[1]; Postemergence, 125 g ai/ha
  Plant response rating: 35
[1]; Postemergence, 250 g ai/ha
  Plant response rating: 50
[1]; Postemergence, 500 g ai/ha
  Plant response rating: 75
[1]; Preemergence, 31 g ai/ha
  Plant response rating: 20
[1]; Preemergence, 62 g ai/ha
  Plant response rating: 40
[1]; Preemergence, 125 g ai/ha
  Plant response rating: 100
[1]; Preemergence, 250 g ai/ha
  Plant response rating: 100
[1]; Preemergence, 500 g ai/ha
  Plant response rating: 100
[2]; Postemergence, 31 g ai/ha
  Plant response rating: 35
[2]; Postemergence, 62 g ai/ha
  Plant response rating: 40
[2]; Postemergence, 125 g ai/ha
  Plant response rating: 50
[2]; Postemergence, 250 g ai/ha
  Plant response rating: 75
[2]; Postemergence, 500 g ai/ha
  Plant response rating: 80
[2]; Preemergence, 31 g ai/ha
  Plant response rating: 30
[2]; Preemergence, 62 g ai/ha
  Plant response rating: 30
[2]; Preemergence, 125 g ai/ha
  Plant response rating: 40
[2]; Preemergence, 250 g ai/ha
  Plant response rating: 75
[2]; Preemergence, 500 g ai/ha
  Plant response rating: 98
[3]; Postemergence, 31 g ai/ha
  Plant response rating: 30
[3]; Postemergence, 62 g ai/ha
  Plant response rating: 60
[3]; Postemergence, 125 g ai/ha
  Plant response rating: 60
[3]; Postemergence, 250 g ai/ha
  Plant response rating: 80
[3]; Postemergence, 500 g ai/ha
  Plant response rating: 85
[3]; Preemergence, 31 g ai/ha
  Plant response rating: 50
[3]; Preemergence, 62 g ai/ha
  Plant response rating: 95
[3]; Preemergence, 125 g ai/ha
  Plant response rating: 95
[3]; Preemergence, 250 g ai/ha
  Plant response rating: 100
[3]; Preemergence, 500 g ai/ha
  Plant response rating: 100
[4]; Postemergence, 31 g ai/ha
  Plant response rating: 30
[4]; Postemergence, 62 g ai/ha
  Plant response rating: 30
[4]; Postemergence, 125 g ai/ha
  Plant response rating: 30
[4]; Postemergence, 250 g ai/ha
  Plant response rating: 60
[4]; Postemergence, 500 g ai/ha
  Plant response rating: 50
[4]; Preemergence, 125 g ai/ha
  Plant response rating: 70
[4]; Preemergence, 250 g ai/ha
  Plant response rating: 90
[4]; Preemergence, 500 g ai/ha
  Plant response rating: 100
[5]; Postemergence, 31 g ai/ha
  Plant response rating: 30
[5]; Postemergence, 62 g ai/ha
  Plant response rating: 30
[5]; Postemergence, 125 g ai/ha
  Plant response rating: 45
[5]; Postemergence, 250 g ai/ha
  Plant response rating: 70
[5]; Postemergence, 500 g ai/ha
  Plant response rating: 90
[5]; Preemergence, 31 g ai/ha
  Plant response rating: 0
[5]; Preemergence, 62 g ai/ha
  Plant response rating: 10
[5]; Preemergence, 250 g ai/ha
  Plant response rating: 70
[5]; Preemergence, 500 g ai/ha
  Plant response rating: 100
[6]; Postemergence, 31 g ai/ha
  Plant response rating: 0
[6]; Postemergence, 62 g ai/ha
  Plant response rating: 0
[6]; Postemergence, 125 g ai/ha
  Plant response rating: 0
[6]; Postemergence, 250 g ai/ha
  Plant response rating: 20
[6]; Postemergence, 500 g ai/ha
  Plant response rating: 70
[6]; Preemergence, 31 g ai/ha
  Plant response rating: 0
[6]; Preemergence, 62 g ai/ha
  Plant response rating: 60
[6]; Preemergence, 125 g ai/ha
  Plant response rating: 100
[6]; Preemergence, 250 g ai/ha
  Plant response rating: 100
[6]; Preemergence, 500 g ai/ha
  Plant response rating: 100
[7]; Postemergence, 31 g ai/ha
  Plant response rating: 10
[7]; Postemergence, 62 g ai/ha
  Plant response rating: 25
[7]; Postemergence, 125 g ai/ha
  Plant response rating: 35
[7]; Postemergence, 250 g ai/ha
  Plant response rating: 50
[7]; Postemergence, 500 g ai/ha
  Plant response rating: 90
[7]; Preemergence, 62 g ai/ha
  Plant response rating: 75
[7]; Preemergence, 125 g ai/ha
  Plant response rating: 60
[7]; Preemergence, 250 g ai/ha
  Plant response rating: 100
[7]; Preemergence, 500 g ai/ha
  Plant response rating: 100
[8]; Postemergence, 31 g ai/ha
  Plant response rating: 20
[8]; Postemergence, 62 g ai/ha
  Plant response rating: 50
[8]; Postemergence, 125 g ai/ha
  Plant response rating: 75
[8]; Postemergence, 250 g ai/ha
  Plant response rating: 80
[8]; Postemergence, 500 g ai/ha
  Plant response rating: 90
[8]; Preemergence, 31 g ai/ha
  Plant response rating: 60
[8]; Preemergence, 62 g ai/ha
  Plant response rating: 80
[8]; Preemergence, 125 g ai/ha
  Plant response rating: 90
[8]; Preemergence, 250 g ai/ha
  Plant response rating: 98
[8]; Preemergence, 500 g ai/ha
  Plant response rating: 100
[9]; Postemergence, 31 g ai/ha
  Plant response rating: 20
[9]; Postemergence, 62 g ai/ha
  Plant response rating: 20
[9]; Postemergence, 125 g ai/ha
  Plant response rating: 40
[9]; Postemergence, 250 g ai/ha
  Plant response rating: 40
[9]; Postemergence, 500 g ai/ha
  Plant response rating: 45
[9]; Preemergence, 31 g ai/ha
  Plant response rating: 0
[9]; Preemergence, 62 g ai/ha
  Plant response rating: 0
[9]; Preemergence, 125 g ai/ha
  Plant response rating: 20
[9]; Preemergence, 250 g ai/ha
  Plant response rating: 90
[9]; Preemergence, 500 g ai/ha
  Plant response rating: 100
[10]; Postemergence, 31 g ai/ha
  Plant response rating: 0
[10]; Postemergence, 62 g ai/ha
  Plant response rating: 0
[10]; Postemergence, 125 g ai/ha
  Plant response rating: 10
[10]; Postemergence, 250 g ai/ha
  Plant response rating: 15
[10]; Postemergence, 500 g ai/ha
  Plant response rating: 25
[10]; Preemergence, 31 g ai/ha
  Plant response rating: 0
[10]; Preemergence, 62 g ai/ha
  Plant response rating: 0
[10]; Preemergence, 125 g ai/ha
  Plant response rating: 20
[10]; Preemergence, 250 g ai/ha
  Plant response rating: 25
[10]; Preemergence, 500 g ai/ha
  Plant response rating: 25
[11]; Postemergence, 31 g ai/ha
  Plant response rating: 0
[11]; Postemergence, 62 g ai/ha
  Plant response rating: 0
[11]; Postemergence, 125 g ai/ha
  Plant response rating: 5
[11]; Postemergence, 250 g ai/ha
  Plant response rating: 5
[11]; Postemergence, 500 g ai/ha
  Plant response rating: 10
[11]; Preemergence, 31 g ai/ha
  Plant response rating: 0
[11]; Preemergence, 62 g ai/ha
  Plant response rating: 0
[11]; Preemergence, 125 g ai/ha
  Plant response rating: 10
[11]; Preemergence, 250 g ai/ha
  Plant response rating: 50
[11]; Preemergence, 500 g ai/ha
  Plant response rating: 70
